Measurements from PubChem BioAssay (NCI).
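Five concentrations, 48 hours, 96-well plates. At the TGI there is no net growth.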

Assays:
Assay in all cases: DTP human tumour cell line panel, 48 h
KM12 colon = test system: KM12 colon
SK-MEL-5 melanoma = test system: SK-MEL-5 melanoma
SK-OV-3 ovarian = test system: SK-OV-3 ovarian
A549 NSCLC = test system: A549 NSCLC
NCI/ADR-RES ovarian = test system: NCI/ADR-RES ovarian
ACHN renal = test system: ACHN renal
HL-60(TB) leukemia = test system: HL-60(TB) leukemia
NCI-H460 lung = test system: NCI-H460 lung
SF-295 CNS = test system: SF-295 CNS
UACC-257 melanoma = test system: UACC-257 melanoma
A498 renal = test system: A498 renal
BT-549 breast = test system: BT-549 breast
SK-MEL-28 melanoma = test system: SK-MEL-28 melanoma
SW-620 colon = test system: SW-620 colon
SK-MEL-2 melanoma = test system: SK-MEL-2 melanoma
COLO 205 colon = test system: COLO 205 colon
TK-10 renal = test system: TK-10 renal
U251 CNS = test system: U251 CNS
786-0 renal = test system: 786-0 renal
OVCAR-4 ovarian = test system: OVCAR-4 ovarian
T-47D breast = test system: T-47D breast
HT29 colon = test system: HT29 colon
HOP-62 NSCLC = test system: HOP-62 NSCLC
MDA-N = test system: MDA-N
NCI-H23 lung = test system: NCI-H23 lung
HCT-15 colon = test system: HCT-15 colon
RPMI-8226 leukemia = test system: RPMI-8226 leukemia
SNB-75 CNS = test system: SNB-75 CNS
CCRF-CEM leukemia = test system: CCRF-CEM leukemia
HS 578T breast = test system: HS 578T breast
MALME-3M melanoma = test system: MALME-3M melanoma
K-562 leukemia = test system: K-562 leukemia
SF-268 CNS = test system: SF-268 CNS
DU-145 prostate = test system: DU-145 prostate
EKVX NSCLC = test system: EKVX NSCLC
RXF 393 renal = test system: RXF 393 renal
IGROV1 ovarian = test system: IGROV1 ovarian
MDA-MB-231 breast = test system: MDA-MB-231 breast
SN12C renal = test system: SN12C renal
OVCAR-8 ovarian = test system: OVCAR-8 ovarian
NCI-H522 lung = test system: NCI-H522 lung
SR leukemia = test system: SR leukemia
PC-3 prostate = test system: PC-3 prostate
UO-31 renal = test system: UO-31 renal
M14 melanoma = test system: M14 melanoma
CAKI-1 renal = test system: CAKI-1 renal
HCT-116 colon = test system: HCT-116 colon
OVCAR-3 ovarian = test system: OVCAR-3 ovarian
MCF7 breast = test system: MCF7 breast
LOX IMVI melanoma = test system: LOX IMVI melanoma
OVCAR-5 ovarian = test system: OVCAR-5 ovarian
HOP-92 NSCLC = test system: HOP-92 NSCLC
NCI-H226 lung = test system: NCI-H226 lung
MOLT-4 leukemia = test system: MOLT-4 leukemia
SNB-19 CNS = test system: SNB-19 CNS
UACC-62 melanoma = test system: UACC-62 melanoma
SF-539 CNS = test system: SF-539 CNS
HCC-2998 colon = test system: HCC-2998 colon

## NN/C(=N\S(=O)(=O)c1cc2ccccc2o1)Nc1ccc(Cl)cc1
KM12 colon
  TGI: > 100 µM
SK-MEL-5 melanoma
  TGI: > 100 µM
SK-OV-3 ovarian
  TGI: > 100 µM
A549 NSCLC
  TGI: > 100 µM
NCI/ADR-RES ovarian
  TGI: > 100 µM
ACHN renal
  TGI: > 100 µM
HL-60(TB) leukemia
  TGI: > 100 µM
NCI-H460 lung
  TGI: > 100 µM
SF-295 CNS
  TGI: > 100 µM
UACC-257 melanoma
  TGI: > 100 µM
A498 renal
  TGI: > 100 µM
BT-549 breast
  TGI: > 100 µM
SK-MEL-28 melanoma
  TGI: > 100 µM
SW-620 colon
  TGI: > 100 µM
SK-MEL-2 melanoma
  TGI: > 100 µM
COLO 205 colon
  TGI: > 100 µM
TK-10 renal
  TGI: > 100 µM
U251 CNS
  TGI: > 100 µM
786-0 renal
  TGI: > 100 µM
OVCAR-4 ovarian
  TGI: > 100 µM
T-47D breast
  TGI: > 100 µM
HT29 colon
  TGI: > 100 µM
HOP-62 NSCLC
  TGI: > 100 µM
MDA-N
  TGI: > 100 µM
NCI-H23 lung
  TGI: > 100 µM
HCT-15 colon
  TGI: > 100 µM
RPMI-8226 leukemia
  TGI: > 100 µM
SNB-75 CNS
  TGI: 85.8 µM
CCRF-CEM leukemia
  TGI: > 100 µM
HS 578T breast
  TGI: 97.2 µM
MALME-3M melanoma
  TGI: > 100 µM
K-562 leukemia
  TGI: > 100 µM
SF-268 CNS
  TGI: > 100 µM
DU-145 prostate
  TGI: > 100 µM
EKVX NSCLC
  TGI: > 100 µM
RXF 393 renal
  TGI: 64.2 µM
IGROV1 ovarian
  TGI: > 100 µM
MDA-MB-231 breast
  TGI: > 100 µM
SN12C renal
  TGI: > 100 µM
OVCAR-8 ovarian
  TGI: > 100 µM
NCI-H522 lung
  TGI: 68.3 µM
SR leukemia
  TGI: > 100 µM
PC-3 prostate
  TGI: > 100 µM
UO-31 renal
  TGI: > 100 µM
M14 melanoma
  TGI: > 100 µM
CAKI-1 renal
  TGI: > 100 µM
HCT-116 colon
  TGI: > 100 µM
OVCAR-3 ovarian
  TGI: > 100 µM
MCF7 breast
  TGI: > 100 µM
LOX IMVI melanoma
  TGI: > 100 µM
OVCAR-5 ovarian
  TGI: > 100 µM
HOP-92 NSCLC
  TGI: 59.5 µM
NCI-H226 lung
  TGI: > 100 µM
MOLT-4 leukemia
  TGI: > 100 µM
SNB-19 CNS
  TGI: > 100 µM
UACC-62 melanoma
  TGI: > 100 µM
SF-539 CNS
  TGI: > 100 µM

## Cc1[nH]c2nccn2c(=O)c1CCCl
KM12 colon
  TGI: 42.2 µM
SK-MEL-5 melanoma
  TGI: 31.3 µM
SK-OV-3 ovarian
  TGI: 63 µM
A549 NSCLC
  TGI: > 100 µM
NCI/ADR-RES ovarian
  TGI: 58.1 µM
ACHN renal
  TGI: 55 µM
HL-60(TB) leukemia
  TGI: 57.2 µM
NCI-H460 lung
  TGI: 49.5 µM
SF-295 CNS
  TGI: > 100 µM
UACC-257 melanoma
  TGI: > 100 µM
A498 renal
  TGI: 61.8 µM
BT-549 breast
  TGI: 62.5 µM
SK-MEL-28 melanoma
  TGI: > 100 µM
SW-620 colon
  TGI: 50.8 µM
COLO 205 colon
  TGI: > 100 µM
TK-10 renal
  TGI: 96.7 µM
U251 CNS
  TGI: 43.8 µM
786-0 renal
  TGI: 64.6 µM
OVCAR-4 ovarian
  TGI: 40 µM
T-47D breast
  TGI: > 100 µM
HT29 colon
  TGI: > 100 µM
HOP-62 NSCLC
  TGI: 60 µM
MDA-N
  TGI: 46.6 µM
NCI-H23 lung
  TGI: 41.6 µM
HCT-15 colon
  TGI: > 100 µM
RPMI-8226 leukemia
  TGI: 62.9 µM
SNB-75 CNS
  TGI: > 100 µM
CCRF-CEM leukemia
  TGI: 85.4 µM
HS 578T breast
  TGI: > 100 µM
MALME-3M melanoma
  TGI: 41.3 µM
K-562 leukemia
  TGI: 93.5 µM
SF-268 CNS
  TGI: > 100 µM
DU-145 prostate
  TGI: 66.7 µM
EKVX NSCLC
  TGI: > 100 µM
RXF 393 renal
  TGI: 38.9 µM
IGROV1 ovarian
  TGI: 61.8 µM
MDA-MB-231 breast
  TGI: > 100 µM
SN12C renal
  TGI: 45.4 µM
OVCAR-8 ovarian
  TGI: 87.6 µM
NCI-H522 lung
  TGI: 49.9 µM
HCC-2998 colon
  TGI: 34.1 µM
SR leukemia
  TGI: 90.7 µM
PC-3 prostate
  TGI: > 100 µM
UO-31 renal
  TGI: 91.4 µM
M14 melanoma
  TGI: > 100 µM
HCT-116 colon
  TGI: 32.3 µM
OVCAR-3 ovarian
  TGI: 62.1 µM
MCF7 breast
  TGI: > 100 µM
LOX IMVI melanoma
  TGI: 33.6 µM
OVCAR-5 ovarian
  TGI: > 100 µM
HOP-92 NSCLC
  TGI: 66.1 µM
NCI-H226 lung
  TGI: > 100 µM
MOLT-4 leukemia
  TGI: 52.9 µM
SNB-19 CNS
  TGI: > 100 µM
UACC-62 melanoma
  TGI: 53.7 µM
SF-539 CNS
  TGI: 36.6 µM

## N#Cc1nn(C(N)=O)c(N)c1C#N
KM12 colon
  TGI: > 100 µM
SK-MEL-5 melanoma
  TGI: > 100 µM
SK-OV-3 ovarian
  TGI: > 100 µM
A549 NSCLC
  TGI: > 100 µM
NCI/ADR-RES ovarian
  TGI: > 100 µM
ACHN renal
  TGI: > 100 µM
HL-60(TB) leukemia
  TGI: > 100 µM
NCI-H460 lung
  TGI: > 100 µM
SF-295 CNS
  TGI: > 100 µM
UACC-257 melanoma
  TGI: > 100 µM
A498 renal
  TGI: > 100 µM
BT-549 breast
  TGI: > 100 µM
SK-MEL-28 melanoma
  TGI: > 100 µM
SW-620 colon
  TGI: > 100 µM
SK-MEL-2 melanoma
  TGI: > 100 µM
COLO 205 colon
  TGI: > 100 µM
TK-10 renal
  TGI: > 100 µM
U251 CNS
  TGI: > 100 µM
786-0 renal
  TGI: > 100 µM
OVCAR-4 ovarian
  TGI: > 100 µM
T-47D breast
  TGI: > 100 µM
HT29 colon
  TGI: > 100 µM
HOP-62 NSCLC
  TGI: > 100 µM
MDA-N
  TGI: > 100 µM
NCI-H23 lung
  TGI: > 100 µM
HCT-15 colon
  TGI: > 100 µM
SNB-75 CNS
  TGI: > 100 µM
CCRF-CEM leukemia
  TGI: > 100 µM
HS 578T breast
  TGI: > 100 µM
K-562 leukemia
  TGI: > 100 µM
SF-268 CNS
  TGI: > 100 µM
DU-145 prostate
  TGI: > 100 µM
EKVX NSCLC
  TGI: > 100 µM
IGROV1 ovarian
  TGI: > 100 µM
MDA-MB-231 breast
  TGI: > 100 µM
SN12C renal
  TGI: > 100 µM
OVCAR-8 ovarian
  TGI: > 100 µM
NCI-H522 lung
  TGI: > 100 µM
HCC-2998 colon
  TGI: > 100 µM
SR leukemia
  TGI: > 100 µM
PC-3 prostate
  TGI: > 100 µM
UO-31 renal
  TGI: > 100 µM
M14 melanoma
  TGI: > 100 µM
CAKI-1 renal
  TGI: > 100 µM
HCT-116 colon
  TGI: > 100 µM
OVCAR-3 ovarian
  TGI: > 100 µM
MCF7 breast
  TGI: > 100 µM
OVCAR-5 ovarian
  TGI: > 100 µM
NCI-H226 lung
  TGI: > 100 µM
MOLT-4 leukemia
  TGI: > 100 µM
SNB-19 CNS
  TGI: > 100 µM
UACC-62 melanoma
  TGI: > 100 µM
SF-539 CNS
  TGI: > 100 µM
